Data as given in ChEMBL document CHEMBL4138123, “Design, synthesis and biological evaluation of novel pyrazolochalcones as potential modulators of PI3K/Akt/mTOR pathway and inducers of apoptosis in breast cancer cells” (Eur J Med Chem, 2017).

Assays:
Assay type in all cases: functional
KM12 = experiment: Cytotoxicity against human KM12 cells assessed as cell growth at 100 uM after 48 hrs by sulforhodamine B assay relative to control; settings: KM12, 48 h, read-out: Activity
HOP-62 = experiment: Cytotoxicity against human HOP62 cells assessed as growth inhibition after 48 hrs by sulforhodamine B assay; settings: HOP-62, 48 h
MOLT-4 [1] = experiment: Cytotoxicity against human MOLT4 cells assessed as cell growth at 0.1 uM after 48 hrs by sulforhodamine B assay relative to control; settings: MOLT-4, 48 h, read-out: Activity
786-0 [2] = experiment: Cytotoxicity against human 786-0 cells assessed as cell growth at 0.1 uM after 48 hrs by sulforhodamine B assay relative to control; settings: 786-0, 48 h, read-out: Activity
OVCAR-4 = experiment: Cytotoxicity against human OVCAR4 cells assessed as cell growth at 0.01 uM after 48 hrs by sulforhodamine B assay relative to control; settings: OVCAR-4, 48 h, read-out: Activity
MOLT-4 [3] = experiment: Cytotoxicity against human MOLT4 cells assessed as cell growth at 0.01 uM after 48 hrs by sulforhodamine B assay relative to control; settings: MOLT-4, 48 h, read-out: Activity
786-0 [4] = experiment: Cytotoxicity against human 786-0 cells assessed as growth inhibition after 48 hrs by sulforhodamine B assay; settings: 786-0, 48 h
NCI-H322M = experiment: Cytotoxicity against human NCI-H322M cells assessed as cell growth at 0.01 uM after 48 hrs by sulforhodamine B assay relative to control; settings: read-out: Activity
A498 [5] = experiment: Cytotoxicity against human A498 cells assessed as growth inhibition after 48 hrs by sulforhodamine B assay; settings: A498, 48 h
SNB-19 = experiment: Cytotoxicity against human SNB19 cells assessed as cell growth at 100 uM after 48 hrs by sulforhodamine B assay relative to control; settings: SNB-19, 48 h, read-out: Activity
OVCAR-8 = experiment: Cytotoxicity against human OVCAR8 cells assessed as cell growth at 1 uM after 48 hrs by sulforhodamine B assay relative to control; settings: OVCAR-8, 48 h, read-out: Activity
OVCAR-5 [6] = experiment: Cytotoxicity against human OVCAR5 cells assessed as cell growth at 0.1 uM after 48 hrs by sulforhodamine B assay relative to control; settings: OVCAR-5, 48 h, read-out: Activity
SF-268 [7] = experiment: Cytotoxicity against human SF268 cells assessed as cell growth at 1 uM after 48 hrs by sulforhodamine B assay relative to control; settings: SF-268, 48 h, read-out: Activity
MDA-MB-435 [8] = experiment: Cytotoxicity against human MDA-MB-435 cells assessed as growth inhibition after 48 hrs by sulforhodamine B assay; settings: MDA-MB-435, 48 h
T47D [9] = experiment: Cytotoxicity against human T47D cells assessed as cell growth at 0.1 uM after 48 hrs by sulforhodamine B assay relative to control; settings: read-out: Activity
T47D [10] = experiment: Cytotoxicity against human T47D cells assessed as growth inhibition after 48 hrs by sulforhodamine B assay
RXF 393 = experiment: Cytotoxicity against human RXF393 cells assessed as cell growth at 0.1 uM after 48 hrs by sulforhodamine B assay relative to control; settings: RXF 393, 48 h, read-out: Activity
SF-268 [11] = experiment: Cytotoxicity against human SF268 cells assessed as cell growth at 10 uM after 48 hrs by sulforhodamine B assay relative to control; settings: SF-268, 48 h, read-out: Activity
MDA-MB-435 [12] = experiment: Cytotoxicity against human MDA-MB-435 cells assessed as cell growth at 1 uM after 48 hrs by sulforhodamine B assay relative to control; settings: MDA-MB-435, 48 h, read-out: Activity
K562 = experiment: Cytotoxicity against human K562 cells assessed as cell growth at 10 uM after 48 hrs by sulforhodamine B assay relative to control; settings: K562, 48 h, read-out: Activity
UACC-257 = experiment: Cytotoxicity against human UACC257 cells assessed as cell growth at 0.1 uM after 48 hrs by sulforhodamine B assay relative to control; settings: UACC-257, 48 h, read-out: Activity
MDA-MB-468 = experiment: Cytotoxicity against human MDA-MB-468 cells assessed as cell growth at 0.1 uM after 48 hrs by sulforhodamine B assay relative to control; settings: MDA-MB-468, 48 h, read-out: Activity
MOLT-4 [13] = experiment: Cytotoxicity against human MOLT4 cells assessed as growth inhibition after 48 hrs by sulforhodamine B assay; settings: MOLT-4, 48 h; for CC50: read-out: LC50 (the source's name)
SK-MEL-28 [14] = experiment: Cytotoxicity against human SK-MEL-28 cells assessed as cell growth at 100 uM after 48 hrs by sulforhodamine B assay relative to control; settings: SK-MEL-28, 48 h, read-out: Activity
PC-3 = experiment: Cytotoxicity against human PC3 cells assessed as cell growth at 10 uM after 48 hrs by sulforhodamine B assay relative to control; settings: PC-3, 48 h, read-out: Activity
DU-145 = experiment: Cytotoxicity against human DU145 cells assessed as growth inhibition after 48 hrs by sulforhodamine B assay; settings: DU-145, 48 h; for CC50: read-out: LC50 (the source's name)
HCC 2998 = experiment: Cytotoxicity against human HCC2998 cells assessed as cell growth at 10 uM after 48 hrs by sulforhodamine B assay relative to control; settings: HCC 2998, 48 h, read-out: Activity
OVCAR-5 [15] = experiment: Cytotoxicity against human OVCAR5 cells assessed as cell growth at 1 uM after 48 hrs by sulforhodamine B assay relative to control; settings: OVCAR-5, 48 h, read-out: Activity
M14 = experiment: Cytotoxicity against human M14 cells assessed as cell growth at 0.01 uM after 48 hrs by sulforhodamine B assay relative to control; settings: M14, 48 h, read-out: Activity
SF-268 [16] = experiment: Cytotoxicity against human SF268 cells assessed as growth inhibition after 48 hrs by sulforhodamine B assay; settings: SF-268, 48 h; for CC50: read-out: LC50 (the source's name)
BT-549 = experiment: Cytotoxicity against human BT549 cells assessed as cell growth at 0.1 uM after 48 hrs by sulforhodamine B assay relative to control; settings: BT-549, 48 h, read-out: Activity
Malme-3M = experiment: Cytotoxicity against human MALME-3M cells assessed as cell growth at 1 uM after 48 hrs by sulforhodamine B assay relative to control; settings: read-out: Activity
SK-MEL-28 [17] = experiment: Cytotoxicity against human SK-MEL-28 cells assessed as growth inhibition after 48 hrs by sulforhodamine B assay; settings: SK-MEL-28, 48 h
A498 [18] = experiment: Cytotoxicity against human A498 cells assessed as cell growth at 0.01 uM after 48 hrs by sulforhodamine B assay relative to control; settings: A498, 48 h, read-out: Activity
LOX IMVI = experiment: Cytotoxicity against human LOXIMVI cells assessed as growth inhibition after 48 hrs by sulforhodamine B assay

COc1cc2c(cc1OC)C(=O)/C(=C/c1cc(-c3ccc4c(c3)OCO4)n[nH]1)C2
growth at 100 µM (KM12): -80%
GI50 (HOP-62): 1.53 µM
LC50 (HOP-62): 5.72 µM
TGI (HOP-62): 2.96 µM
growth at 0.1 µM (MOLT-4 [1]): 99%
growth at 0.1 µM (786-0 [2]): 98%
growth at 0.01 µM (OVCAR-4): 101%
growth at 0.01 µM (MOLT-4 [3]): 100%
GI50 (786-0 [4]): 1.61 µM
LC50 (786-0 [4]): 5.54 µM
TGI (786-0 [4]): 2.99 µM
growth at 0.01 µM (NCI-H322M): 102%
GI50 (A498 [5]): 1.33 µM
LC50 (A498 [5]): 6 µM
TGI (A498 [5]): 2.83 µM
growth at 100 µM (SNB-19): -94%
growth at 1 µM (OVCAR-8): 84%
growth at 0.1 µM (OVCAR-5 [6]): 92%
growth at 1 µM (SF-268 [7]): 83%
GI50 (MDA-MB-435 [8]): 1.73 µM
LC50 (MDA-MB-435 [8]): 6.18 µM
TGI (MDA-MB-435 [8]): 3.27 µM
growth at 0.1 µM (T47D [9]): 95%
GI50 (T47D [10]): 1.31 µM
LC50 (T47D [10]): 5.62 µM
TGI (T47D [10]): 2.72 µM
growth at 0.1 µM (RXF 393): 82%
growth at 10 µM (SF-268 [11]): -75%
growth at 1 µM (MDA-MB-435 [12]): 93%
growth at 10 µM (K562): 2%
growth at 0.1 µM (UACC-257): 94%
growth at 0.1 µM (MDA-MB-468): 83%
GI50 (MOLT-4 [13]): 2.57 µM
TGI (MOLT-4 [13]): 6.97 µM
CC50 (MOLT-4 [13]): > 100 µM
growth at 100 µM (SK-MEL-28 [14]): -92%
growth at 10 µM (PC-3): -75%
GI50 (DU-145): 1.45 µM
TGI (DU-145): 2.86 µM
CC50 (DU-145): 5.64 µM
growth at 10 µM (HCC 2998): -88%
growth at 1 µM (OVCAR-5 [15]): 84%
growth at 0.01 µM (M14): 99%
GI50 (SF-268 [16]): 1.63 µM
TGI (SF-268 [16]): 3.37 µM
CC50 (SF-268 [16]): 6.99 µM
growth at 0.1 µM (BT-549): 91%
growth at 1 µM (Malme-3M): 88%
GI50 (SK-MEL-28 [17]): 1.89 µM
LC50 (SK-MEL-28 [17]): 6.09 µM
TGI (SK-MEL-28 [17]): 3.4 µM
growth at 0.01 µM (A498 [18]): 80%

COc1ccc(-c2cc(/C=C/C(=O)c3ccc(N)cc3)[nH]n2)cc1
growth at 100 µM (KM12): -78%
GI50 (HOP-62): 2.8 µM
LC50 (HOP-62): 61.2 µM
TGI (HOP-62): 7.49 µM
growth at 0.1 µM (MOLT-4 [1]): 98%
growth at 0.1 µM (786-0 [2]): 95%
growth at 0.01 µM (OVCAR-4): 88%
growth at 0.01 µM (MOLT-4 [3]): 97%
GI50 (786-0 [4]): 2.12 µM
LC50 (786-0 [4]): 58.1 µM
TGI (786-0 [4]): 5.69 µM
growth at 0.01 µM (NCI-H322M): 95%
GI50 (A498 [5]): 2.03 µM
LC50 (A498 [5]): 15.4 µM
TGI (A498 [5]): 4.95 µM
growth at 100 µM (SNB-19): -80%
growth at 1 µM (OVCAR-8): 76%
growth at 0.1 µM (OVCAR-5 [6]): 95%
growth at 1 µM (SF-268 [7]): 78%
GI50 (MDA-MB-435 [8]): 2.24 µM
LC50 (MDA-MB-435 [8]): 38.2 µM
TGI (MDA-MB-435 [8]): 7 µM
growth at 0.1 µM (T47D [9]): 87%
GI50 (T47D [10]): 1.47 µM
LC50 (T47D [10]): 85.8 µM
TGI (T47D [10]): 9.77 µM
growth at 0.1 µM (RXF 393): 88%
growth at 10 µM (SF-268 [11]): -29%
growth at 1 µM (MDA-MB-435 [12]): 85%
growth at 10 µM (K562): 4%
growth at 0.1 µM (UACC-257): 97%
growth at 0.1 µM (MDA-MB-468): 86%
GI50 (MOLT-4 [13]): 2.32 µM
TGI (MOLT-4 [13]): 9.48 µM
CC50 (MOLT-4 [13]): > 100 µM
growth at 100 µM (SK-MEL-28 [14]): -81%
GI50 (DU-145): 1.32 µM
TGI (DU-145): 3.46 µM
CC50 (DU-145): 9.11 µM
growth at 10 µM (HCC 2998): -90%
growth at 1 µM (OVCAR-5 [15]): 92%
growth at 0.01 µM (M14): 102%
GI50 (SF-268 [16]): 1.81 µM
TGI (SF-268 [16]): 5.31 µM
CC50 (SF-268 [16]): 45.7 µM
growth at 0.1 µM (BT-549): 96%
growth at 1 µM (Malme-3M): 87%
GI50 (SK-MEL-28 [17]): 1.87 µM
LC50 (SK-MEL-28 [17]): 8.57 µM
TGI (SK-MEL-28 [17]): 4.01 µM
growth at 0.01 µM (A498 [18]): 88%

COc1ccc(-c2cc(/C=C/C(=O)c3ccc4c(c3)OCO4)[nH]n2)cc1OC
GI50 (HOP-62): 1.73 µM
GI50 (786-0 [4]): 1.81 µM
GI50 (LOX IMVI): 1.29 µM
GI50 (A498 [5]): 1.27 µM
GI50 (MDA-MB-435 [8]): 1.72 µM
GI50 (T47D [10]): 1.36 µM
GI50 (MOLT-4 [13]): 2.2 µM
GI50 (DU-145): 1.64 µM
GI50 (SF-268 [16]): 2.09 µM
GI50 (SK-MEL-28 [17]): 1.82 µM
